Reference: PubChem BioAssay (NCI)
Values joined by “and” are separate entries in the source; they are usually repeats but may differ in a detail not shown here. Equal values may be shown once.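 Protocol summary: plate cells (96-well), add compound at 5 concentrations, incubate 48 h, interpolate endpoints linearly. GI50 is the concentration that inhibits growth by half. At the TGI there is no net growth.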

What was measured:
Assay in all cases: growth of human tumour cells (NCI), 48 h
LOX IMVI melanoma = test system: LOX IMVI melanoma
SK-MEL-5 melanoma = test system: SK-MEL-5 melanoma
SNB-19 CNS = test system: SNB-19 CNS
SW-620 colon = test system: SW-620 colon
A498 renal = test system: A498 renal
OVCAR-3 ovarian = test system: OVCAR-3 ovarian
K-562 leukemia = test system: K-562 leukemia
OVCAR-5 ovarian = test system: OVCAR-5 ovarian
UACC-257 melanoma = test system: UACC-257 melanoma
BT-549 breast = test system: BT-549 breast

Row | Structure (SMILES) | GI50 (LOX IMVI melanoma) | TGI (LOX IMVI melanoma) | GI50 (SK-MEL-5 melanoma) | TGI (SK-MEL-5 melanoma) | GI50 (SNB-19 CNS) | TGI (SNB-19 CNS) [µM] | GI50 (SW-620 colon) | TGI (SW-620 colon) | GI50 (A498 renal) | TGI (A498 renal) | GI50 (OVCAR-3 ovarian) | TGI (OVCAR-3 ovarian) | GI50 (K-562 leukemia) [µM] | TGI (K-562 leukemia) [µM] | GI50 (OVCAR-5 ovarian) | TGI (OVCAR-5 ovarian) | GI50 (UACC-257 melanoma) | TGI (UACC-257 melanoma) | GI50 (BT-549 breast) | TGI (BT-549 breast)
1 | N#CC1=C(N)Oc2c(sc3c(Br)cccc23)C1c1ccc(Cl)cc1 (stereo not drawn) | 0.579 µM | 8.45 µM | 0.559 µM | 2.72 µM | 0.822 µM | 12.8 | 0.408 µM | > 100 µM | 0.47 µM | 11 µM | 0.272 µM | 0.749 µM | 0.322 | 3.54 | 1.91 µM | 5.98 µM | 1.73 µM | 22.7 µM | 0.962 µM | 12.7 µM
2 | Cc1ccccc1C(C(=O)NC1CCCCC1)N(C(=O)CNc1ccc(C#N)cc1)c1cccc(F)c1 (stereo not drawn) | 44.9 µM | > 100 µM | > 71.2 µM | > 100 µM | 9.13 µM | 37.3 | > 100 µM | > 100 µM | 24 µM | 74.4 µM | > 63 µM | > 100 µM | > 95.7 | > 100 | 46.6 µM | > 100 µM | 50 µM | > 100 µM | 32.5 µM | > 100 µM
3 | C/C=C(\C)C(=O)O[C@H]1C=CC(=O)O[C@H]1COC(=O)[C@H](C)O | 3.59 µM | 14.8 µM | 4.62 µM | 16.7 µM | 12.1 µM | 27 | 4.28 µM | 15.1 µM | 15.7 µM | 31.4 µM | 3.44 µM | 14 µM | 3.69 | 17.6 | 18.8 µM | 39 µM | 14.7 µM | 30.8 µM | 9.56 µM | 21.7 µM
4 | Cc1sc2c(c1C)C(c1ccc(Cl)cc1)=N[C@@H](CC(=O)NCCCN1CCN(C)CC1)c1nnc(C)n1-2 | 0.362 µM | > 69.9 µM | 6.36 µM | > 100 µM | 0.987 µM | > 100 | > 100 µM | > 100 µM | 0.271 µM | 7.78 µM | 1.33 µM | > 100 µM | 0.299 | > 100 | 1.99 µM | > 100 µM | 3.26 µM | > 100 µM | 3.51 µM | > 100 µM
5 | O=[N+]([O-])c1ccc2c(c1)C(c1ccccc1Cl)=Nc1c(n[nH]c1-c1cccnc1)N2 | > 25 µM | > 25 µM | > 25 µM | > 25 µM | > 25 µM | > 25 | > 25 µM | > 25 µM | > 20.3 µM | > 25 µM | > 25 µM | > 25 µM | > 25 | > 25 | > 25 µM | > 25 µM | > 25 µM | > 25 µM | > 25 µM | > 25 µM
6 | CN(C)Cc1c(C(=O)NCCOc2ccc(C(=O)NO)cc2)oc2ccccc12 | 0.289 µM | 1.11 µM | 0.159 µM | 0.347 µM | 0.453 µM | 13.9 | 0.166 µM | 0.547 µM | 0.126 µM | 0.411 µM | 0.272 µM | 0.969 µM | 0.307 | > 100 | 0.115 µM | 1.3 µM | 0.0689 µM | 0.592 µM | 0.519 µM | 13.8 µM
7 | Nc1nn(C(=O)Nc2c(F)cccc2F)c2ccccc12 | 49.3 µM | > 100 µM | 39.7 µM | > 100 µM | > 100 µM | > 100 | 38.3 µM | > 100 µM | 31.4 µM | > 100 µM | 65.7 µM | > 100 µM | > 100 | > 100 | > 100 µM | > 100 µM | 71.7 µM | > 100 µM | 28.8 µM | > 100 µM
8 | O=C1CC(CC(OCc2ccccc2)C(OCc2ccccc2)C(COCc2ccccc2)OCc2ccccc2)CC(=O)N1 (stereo not drawn) | > 100 µM and 10.7 µM | > 100 µM and 22.5 µM | > 100 µM and 12.6 µM | > 100 µM and 25.6 µM | > 100 µM and 33.8 µM | > 100 | > 100 µM and 11.7 µM | > 100 µM and 23.9 µM | > 100 µM and 21.7 µM | > 100 µM and 89 µM | > 100 µM and 12.2 µM | > 100 µM and 44 µM | – | > 100 | > 100 µM and 24.9 µM | > 100 µM and 80.8 µM | > 100 µM and 16.3 µM | > 100 µM and 36.4 µM | > 100 µM and 12.6 µM | > 100 µM and 25.3 µM
9 | Cn1c(=O)c(Oc2ccc(F)cc2F)cc2cnc(NC3CCOCC3)nc21 | > 25 µM | > 25 µM | > 25 µM | > 25 µM | > 25 µM | > 25 | > 25 µM | > 25 µM | 5 µM | > 25 µM | > 25 µM | > 25 µM | > 25 | > 25 | > 25 µM | > 25 µM | > 25 µM | > 25 µM | > 25 µM | > 25 µM
10 | C=C1C(=O)O[C@H]2[C@H]1CC/C(CNC(=O)/C=C/c1ccccc1F)=C\CC[C@@]1(C)O[C@@H]21 | 1.19 µM | 2.56 µM | 1.78 µM | 3.29 µM | 3.83 µM | 14.4 | 0.487 µM | 1.66 µM | 2.6 µM | 7.49 µM | 0.691 µM | 2.1 µM | 0.577 | 7.45 | 1.9 µM | 5.15 µM | 1.77 µM | 3.59 µM | 1.48 µM | 3.45 µM
11 | CC(C)C(=O)c1c(C(F)(F)F)n([O-])c2ccccc2[n+]1=O | 1.85 µM | – | 1.63 µM | 3.03 µM | 3.51 µM | 25.8 | 4.34 µM | 17.5 µM | 7.34 µM | 16.2 µM | 0.493 µM | 1.24 µM | 0.508 | > 27.1 | 2.7 µM | 6.25 µM | 2.74 µM | 7.8 µM | 1.06 µM | 3.08 µM
12 | CC1Cc2ccccc2N1C(=O)Cc1nc(N2CCOCC2)cc(=O)[nH]1 (stereo not drawn) | 11.6 µM and 16.7 µM | 73.7 µM and > 100 µM | 13.4 µM and 34.5 µM | 34.1 µM and > 100 µM | 25.3 µM and 45.8 µM | > 100 | 27.2 µM and 72.5 µM | > 100 µM | 0.026 µM and 0.0929 µM | 0.189 µM and 0.559 µM | 6.37 µM and 12.8 µM | > 100 µM | > 100 | > 100 | 9.09 µM and 18.2 µM | > 100 µM | 15.9 µM and 20.2 µM | > 100 µM | 1.37 µM and 5.58 µM | 57.2 µM and > 94.7 µM
